Active and inactive are the calls of the source. Cut-off read from the data, not from the text of the source, for most assays here: active = IC50 of 20 µM or less and inactive = more.
Columns and labels:
Assay type in all cases: functional
Fatty acid synthase = Fatty acid synthase (Homo sapiens, UniProt P49327); test: inhibition of human FAS-TE enzyme activity – biochemical, kinetic fluorescence intensity, dose response (AID 624326);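 note: rate of fluorescence rise from hydrolysis of a fluorogenic O-methyl fluorescein ester substrate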
[1] = target: T1, Small ubiquitin-related modifier 1 (Homo sapiens, UniProt P63165); test: SUMO1 protein-protein binding blockers, potency – biochemical, FRET, dose response (AID 624383); settings: read-out: IC50_Mean
[2] = target: Induced myeloid leukemia cell differentiation protein Mcl-1 (Homo sapiens, UniProt Q07820)
INS1 = test: INS-1E survival protection against cytokine death – cell-based, luminescence, retest, dose response (AID 449756); settings: Rattus norvegicus;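 note: cell death triggered by IL-1 beta plus TNF-alpha plus IFN-gamma mixture; protective hits raise ATP signal compared with cytokine alone wells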
[3] = target: T1, Small ubiquitin-related modifier 1; test: SUMO1 protein interaction blockers, potency – biochemical, fluorescence polarization, uHTS hits, dose response (AID 624382); settings: read-out: IC50_Mean

T1 sequence (P63165 whole entry): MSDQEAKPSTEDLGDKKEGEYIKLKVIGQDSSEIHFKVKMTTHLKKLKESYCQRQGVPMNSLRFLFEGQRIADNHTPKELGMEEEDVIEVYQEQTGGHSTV
Fatty acid synthase, sequence (P49327 whole entry): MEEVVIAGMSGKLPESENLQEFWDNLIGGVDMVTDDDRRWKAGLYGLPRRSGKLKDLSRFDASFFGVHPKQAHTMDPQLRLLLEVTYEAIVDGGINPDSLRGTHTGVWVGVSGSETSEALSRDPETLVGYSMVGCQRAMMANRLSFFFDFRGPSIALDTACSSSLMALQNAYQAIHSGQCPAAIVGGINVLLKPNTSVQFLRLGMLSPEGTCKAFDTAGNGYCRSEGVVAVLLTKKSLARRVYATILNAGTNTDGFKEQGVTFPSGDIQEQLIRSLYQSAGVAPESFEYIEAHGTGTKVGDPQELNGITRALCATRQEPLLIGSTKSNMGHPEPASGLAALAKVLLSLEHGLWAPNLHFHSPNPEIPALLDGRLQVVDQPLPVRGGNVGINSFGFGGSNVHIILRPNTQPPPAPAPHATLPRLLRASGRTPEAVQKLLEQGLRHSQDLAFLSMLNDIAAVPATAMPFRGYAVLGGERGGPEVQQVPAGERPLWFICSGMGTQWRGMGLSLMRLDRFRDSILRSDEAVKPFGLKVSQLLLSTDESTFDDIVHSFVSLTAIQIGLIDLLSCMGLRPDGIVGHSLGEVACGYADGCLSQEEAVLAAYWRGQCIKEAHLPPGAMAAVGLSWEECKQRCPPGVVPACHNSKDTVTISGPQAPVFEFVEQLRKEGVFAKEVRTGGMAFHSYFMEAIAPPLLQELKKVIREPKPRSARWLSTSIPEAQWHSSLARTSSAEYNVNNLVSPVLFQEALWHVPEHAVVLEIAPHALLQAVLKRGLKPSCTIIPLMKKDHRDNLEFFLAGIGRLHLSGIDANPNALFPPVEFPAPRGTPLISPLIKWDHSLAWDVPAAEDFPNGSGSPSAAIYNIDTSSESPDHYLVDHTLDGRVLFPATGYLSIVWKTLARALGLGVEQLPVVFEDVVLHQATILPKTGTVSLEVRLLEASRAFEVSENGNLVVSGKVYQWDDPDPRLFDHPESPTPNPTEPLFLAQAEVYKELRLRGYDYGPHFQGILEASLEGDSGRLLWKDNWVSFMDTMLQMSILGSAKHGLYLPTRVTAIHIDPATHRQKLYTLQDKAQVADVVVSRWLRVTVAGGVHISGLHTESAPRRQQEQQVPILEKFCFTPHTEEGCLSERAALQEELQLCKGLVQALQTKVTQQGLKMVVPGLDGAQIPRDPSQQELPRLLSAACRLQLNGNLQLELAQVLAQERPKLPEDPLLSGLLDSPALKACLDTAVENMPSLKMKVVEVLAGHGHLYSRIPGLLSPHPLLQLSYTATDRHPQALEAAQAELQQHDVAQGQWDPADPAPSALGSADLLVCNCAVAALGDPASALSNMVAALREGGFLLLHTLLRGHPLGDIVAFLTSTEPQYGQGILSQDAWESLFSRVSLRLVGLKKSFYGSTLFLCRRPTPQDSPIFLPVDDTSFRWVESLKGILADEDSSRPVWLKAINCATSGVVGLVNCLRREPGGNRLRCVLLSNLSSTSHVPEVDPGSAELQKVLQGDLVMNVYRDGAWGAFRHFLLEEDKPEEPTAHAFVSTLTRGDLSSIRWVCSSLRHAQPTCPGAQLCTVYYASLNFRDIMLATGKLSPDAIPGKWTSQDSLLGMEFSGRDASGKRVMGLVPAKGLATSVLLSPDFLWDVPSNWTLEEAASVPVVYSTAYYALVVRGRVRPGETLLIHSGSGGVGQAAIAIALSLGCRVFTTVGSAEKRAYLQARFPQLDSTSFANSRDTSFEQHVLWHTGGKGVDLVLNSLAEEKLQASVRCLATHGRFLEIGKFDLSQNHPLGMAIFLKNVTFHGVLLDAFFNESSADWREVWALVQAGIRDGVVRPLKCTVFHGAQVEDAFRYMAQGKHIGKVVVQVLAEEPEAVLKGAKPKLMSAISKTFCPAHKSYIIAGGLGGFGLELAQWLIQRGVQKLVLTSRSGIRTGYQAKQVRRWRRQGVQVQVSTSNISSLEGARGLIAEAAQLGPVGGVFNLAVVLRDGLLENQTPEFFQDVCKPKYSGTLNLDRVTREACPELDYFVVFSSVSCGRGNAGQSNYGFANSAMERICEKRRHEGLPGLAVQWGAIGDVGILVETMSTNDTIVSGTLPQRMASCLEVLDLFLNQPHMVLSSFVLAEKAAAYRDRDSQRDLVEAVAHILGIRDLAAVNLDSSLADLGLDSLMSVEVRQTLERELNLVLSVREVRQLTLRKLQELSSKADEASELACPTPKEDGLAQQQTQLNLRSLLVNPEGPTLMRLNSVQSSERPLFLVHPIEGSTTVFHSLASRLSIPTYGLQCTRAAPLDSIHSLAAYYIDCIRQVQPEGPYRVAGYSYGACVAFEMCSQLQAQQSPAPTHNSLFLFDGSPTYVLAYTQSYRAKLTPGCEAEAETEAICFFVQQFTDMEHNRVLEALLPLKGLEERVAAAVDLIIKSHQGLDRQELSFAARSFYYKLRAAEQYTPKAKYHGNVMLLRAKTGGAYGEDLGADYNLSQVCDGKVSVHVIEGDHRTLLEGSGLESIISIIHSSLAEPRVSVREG
Induced myeloid leukemia cell differentiation protein Mcl-1, sequence (Q07820 whole entry): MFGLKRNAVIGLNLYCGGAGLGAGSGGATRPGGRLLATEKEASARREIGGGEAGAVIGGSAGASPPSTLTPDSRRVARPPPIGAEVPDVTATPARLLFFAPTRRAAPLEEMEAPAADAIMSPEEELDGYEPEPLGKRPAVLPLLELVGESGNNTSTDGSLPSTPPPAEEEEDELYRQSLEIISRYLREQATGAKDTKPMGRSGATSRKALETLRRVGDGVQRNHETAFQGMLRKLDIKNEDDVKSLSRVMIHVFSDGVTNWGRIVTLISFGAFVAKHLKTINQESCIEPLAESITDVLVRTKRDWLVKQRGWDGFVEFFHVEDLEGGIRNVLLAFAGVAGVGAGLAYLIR

IC50 (Fatty acid synthase) | SMILES | IC50 [1] | IC50 [2] | AC50 (INS1) | IC50 [3]
2.73 µM (active) | O=C(OCc1ccc([N+](=O)[O-])cc1)c1cc([N+](=O)[O-])ccc1N1CCOCC1 |  |  |  | 
 | O=C(Nc1ccc(Nc2ccncc2)cc1)c1ccc(Nc2ccnc3ccc([N+](=O)[O-])cc23)cc1[N+](=O)[O-] | 10.3 µM (active) | 2.46 µM (active) | 10.5 µM (active) | > 66.6 µM (inactive)

Source: ChEMBL document CHEMBL1201862, “PubChem BioAssay data set” (2004)
